# Measured values reported in patent US20190388320A1, “METHOD OF STRENGTHENING HAIR” (Conopco, Inc. d/b/a UNILEVER, priority 2017, published 2019).
# Assay: Denaturation temperature Td of treated hair fibres by DSC
# Conditions: soaked for 30 minutes in 2% aqueous solution; for Average Td (n = 3): denaturation temperature by DSC, hair switches washed, left to dry; for Change in Td of the treated fibres: in words, relative to Control (water)
# Protocol: Virgin dark brown European hair switches of length 25 cm and weight 2 gms, were treated as follows: • Control: After initial washing, soaked for 30 minutes in water • Example 1: After initial washing, soaked for 30 minutes in a 2% aqueous solution of N-α-acetyl-L-lysine • Example A: After initial washing, soaked for 30 minutes in a 2% aqueous solution of L-lysine • Example B: After initial washing, soaked for 30 minutes in a 2% aqueous solution of N-α-acetyl-L-arginine
# At the end of the soaking period the switches were left to dry and clippings from a few fibres were used to measure denaturation temperature Td using DSC.
Structure (SMILES),Average Td (n = 3),Change in Td of the treated fibres
"NCCCC[C@H](N)C(=O)O [Example A, L-lysine]",148.1,decrease Td
"CC(=O)N[C@@H](CCCCN)C(=O)O [Example 1, N-α-acetyl-L-lysine]",153.4,substantial and significant increase in Td
"CC(=O)N[C@@H](CCCNC(=N)N)C(=O)O [Example B, N-α-acetyl-L-arginine]",148.2,decrease Td
